Assay results reported in PubChem BioAssay (NCI).
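How tested: cells in 96-well plates exposed to compound for 48 hours at five concentrations. TGI: concentration producing complete growth inhibition.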 Where a SMILES comes first, the peptide text is derived from it. The star is where a group is joined. Boc = CC(C)(C)OC(=O)*; OSu = O=C1CCC(=O)N1O*

Columns and labels:
Assay in all cases: DTP human tumour cell line panel, 48 h
HOP-92 NSCLC = test system: HOP-92 NSCLC
SW-620 colon = test system: SW-620 colon
A498 renal = test system: A498 renal
OVCAR-8 ovarian = test system: OVCAR-8 ovarian
SK-OV-3 ovarian = test system: SK-OV-3 ovarian
U251 CNS = test system: U251 CNS
HCC-2998 colon = test system: HCC-2998 colon
PC-3 prostate = test system: PC-3 prostate
NCI/ADR-RES ovarian = test system: NCI/ADR-RES ovarian
HOP-62 NSCLC = test system: HOP-62 NSCLC
DU-145 prostate = test system: DU-145 prostate
MCF7 breast = test system: MCF7 breast

SMILES | TGI (HOP-92 NSCLC) [µM] | TGI (SW-620 colon) [µM] | TGI (A498 renal) [µM] | TGI (OVCAR-8 ovarian) [µM] | TGI (SK-OV-3 ovarian) [µM] | TGI (U251 CNS) [µM] | TGI (HCC-2998 colon) [µM] | TGI (PC-3 prostate) [µM] | TGI (NCI/ADR-RES ovarian) [µM] | TGI (HOP-62 NSCLC) [µM] | TGI (DU-145 prostate) [µM] | TGI (MCF7 breast) [µM]
COC(=O)c1cc(CC(C)C)c2c(c1)[nH]c1ccccc12 | > 100 | > 100 | > 100 | > 100 | > 100 | > 100 | > 100 |  |  |  |  | 
CCCCN(CC)c1nc(C)nc2c1c(C)c(C)n2-c1c(C)cc(C)cc1C | 21.5 | 33.4 | 31.3 | 28.5 | 32.9 | 23.9 |  | 26.6 | 27.6 | 32.9 | 30.2 | 
CCOC(=O)CCC(NC(=O)c1ccc(OCc2nc3cc(C(F)(F)F)ccc3nc2-c2ccccc2)cc1)C(=O)OCC (centres undefined) | > 100 | > 100 | > 100 | > 100 | > 100 | > 100 |  | > 100 | > 100 |  | > 100 | 19.4
CC1(C)CC2(C)CC1CC2O (centres undefined) |  | > 100 |  | > 100 | > 100 | > 100 | > 100 | > 100 | > 100 | > 100 | > 100 | > 100
COC1O[C@H]2CCN(C(=O)OCc3ccccc3)[C@H]2[C@H]1OCc1ccccc1 (some centres undefined) | > 86 | > 100 | > 100 | > 100 | 55.3 | > 100 | > 100 |  |  | > 100 |  | 
O=C1CC(O)c2c1csc2Br (centres undefined) |  | 37.2 |  | 62.4 | > 100 | 41 | 44 | > 100 | 49 | > 100 | 88 | 45.7
CC(C)(C)OC(=O)NC(Cc1ccc(O)cc1)C(=O)NC(CCCCN)C(=O)NC(Cc1ccc(O)cc1)C(=O)NC(CCCCN)C(=O)ON1C(=O)CCC1=O (centres undefined) (Boc-YKYK-OSu; configuration not given here) | > 100 | > 100 | > 100 | > 100 |  | > 100 | > 100 | > 100 |  | > 100 |  | > 100
CC12CC(c3ccccc3O1)C(C(=O)Nc1ccc(F)cc1)C(=O)N2 (centres undefined) |  | > 100 | > 100 | > 100 | > 100 | > 100 | > 100 | > 100 | > 100 | > 100 | > 100 | > 100
Cc1cc(=O)cc2sc3c(C)cccc3nc1-2 | 85.9 | 17.7 | 41.7 | > 100 | > 100 | > 100 | > 100 |  |  | > 100 |  | 
COc1ccc2nc(-c3ccc(OCc4ccccc4)cc3)ccc2c1 | > 100 | > 100 |  | > 100 | > 100 |  | > 100 |  |  | > 100 |  | 
CCOC(=O)c1cc(C2(O)CCN(Cc3ccccc3)C2=O)c(-c2cc(C)no2)[nH]1 (centres undefined) |  | > 100 | > 100 | > 100 |  | > 100 | > 100 | > 100 | > 100 | > 100 | > 100 | > 100
